According to article PMC3712578, “Luteolin is a novel p90 ribosomal S6 kinase (RSK) inhibitor that suppresses Notch4 signaling by blocking the activation of Y-box binding protein-1 (YB-1)” (Oncotarget, 2013):
pIC50: −log10 of the molar value.

What was measured:
RSK2 [1] = target: T1, RSK2 (Homo sapiens, UniProt P51812); assay: biochemical; set-up: In vitro RSK2 kinase assay with S6K peptide substrate, dose-response 0.001-100 uM (SignalChem)
T1 construct: gene RPS6KA3
Experimental: Following the RSK1 screen, a broad dose-response study (0.001-100 μM) was conducted against RSK2 using the YB-1 peptide as a substrate in cell-free assays (Table 2). […] Kinase profiling services for RSK2 were provided by SignalChem, as previously described. […] To confirm inhibition of RSK2 activity, we also repeated the kinase assay with a secondary RSK substrate, S6K.

RSK1 [2] = target: T2, RSK1 (Homo sapiens, UniProt Q15418); assay: biochemical; set-up: In vitro RSK1 kinase assay with S6K peptide substrate, dose-response 0.001-100 uM
T2 construct: gene RPS6KA1

RSK2 [3] = target: T1, RSK2; assay: in vitro RSK2 kinase assay, YB-1 peptide substrate; assay type: biochemical
RSK1 [4] = target: T2, RSK1; assay: in vitro RSK1 kinase assay, YB-1 peptide ([…] screen) and S6K peptide dose response; assay type: biochemical
[5] = read-out: Inhibition of RSK2 (%) against the YB-1 peptide as the substrate / IC50

T1 sequence (P51812 whole entry): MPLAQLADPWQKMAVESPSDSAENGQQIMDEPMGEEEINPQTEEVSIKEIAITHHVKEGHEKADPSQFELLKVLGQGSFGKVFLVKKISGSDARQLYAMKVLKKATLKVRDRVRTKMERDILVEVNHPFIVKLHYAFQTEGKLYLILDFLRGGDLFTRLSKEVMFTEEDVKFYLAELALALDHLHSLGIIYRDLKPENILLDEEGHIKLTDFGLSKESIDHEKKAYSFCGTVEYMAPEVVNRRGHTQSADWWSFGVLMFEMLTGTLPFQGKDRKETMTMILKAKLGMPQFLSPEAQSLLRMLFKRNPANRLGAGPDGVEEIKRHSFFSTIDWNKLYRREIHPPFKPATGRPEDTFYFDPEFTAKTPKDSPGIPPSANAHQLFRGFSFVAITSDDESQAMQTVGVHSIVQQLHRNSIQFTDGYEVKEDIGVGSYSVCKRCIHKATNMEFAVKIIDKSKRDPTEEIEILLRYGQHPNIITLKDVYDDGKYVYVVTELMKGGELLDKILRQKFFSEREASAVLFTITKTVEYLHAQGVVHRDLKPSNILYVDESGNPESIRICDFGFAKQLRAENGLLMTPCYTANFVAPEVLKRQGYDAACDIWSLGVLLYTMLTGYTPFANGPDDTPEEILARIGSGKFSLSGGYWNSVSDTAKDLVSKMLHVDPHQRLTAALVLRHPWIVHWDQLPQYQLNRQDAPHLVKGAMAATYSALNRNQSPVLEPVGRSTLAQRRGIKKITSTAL
T2 sequence (Q15418 whole entry): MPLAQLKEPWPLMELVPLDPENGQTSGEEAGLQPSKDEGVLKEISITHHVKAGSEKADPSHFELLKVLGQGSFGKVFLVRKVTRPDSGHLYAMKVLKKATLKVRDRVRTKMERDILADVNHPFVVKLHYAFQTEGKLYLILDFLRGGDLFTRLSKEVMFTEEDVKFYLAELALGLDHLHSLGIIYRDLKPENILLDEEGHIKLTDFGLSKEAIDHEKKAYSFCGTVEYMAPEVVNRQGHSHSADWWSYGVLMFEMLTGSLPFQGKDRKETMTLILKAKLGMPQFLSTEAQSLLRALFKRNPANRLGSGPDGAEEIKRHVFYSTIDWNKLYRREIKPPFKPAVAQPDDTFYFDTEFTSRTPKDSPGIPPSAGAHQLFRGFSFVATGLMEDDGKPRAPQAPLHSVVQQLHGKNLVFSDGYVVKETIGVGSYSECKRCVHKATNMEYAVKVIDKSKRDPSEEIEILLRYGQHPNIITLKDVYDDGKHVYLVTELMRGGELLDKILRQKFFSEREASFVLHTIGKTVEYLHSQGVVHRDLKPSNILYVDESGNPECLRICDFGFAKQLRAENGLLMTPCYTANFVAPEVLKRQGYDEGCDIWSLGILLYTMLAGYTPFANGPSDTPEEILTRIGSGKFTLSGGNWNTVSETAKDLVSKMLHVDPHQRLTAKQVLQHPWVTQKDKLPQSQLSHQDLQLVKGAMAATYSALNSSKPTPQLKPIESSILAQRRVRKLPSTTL

O=c1cc(-c2ccc(O)cc2)oc2cc(O)cc(O)c12 [Apigenin]
pIC50 (RSK2 [1]): 5.46 | pIC50 (RSK1 [2]): 5.42 | pIC50 (RSK2 [3]): 5.32

O=c1c(O)c(-c2ccc(O)cc2)oc2cc(O)cc(O)c12 [Kaempferol]
pIC50 (RSK2 [1]): 6.12 | pIC50 (RSK1 [2]): 5.83 | in vitro RSK1 kinase assay, YB-1 peptide (10 μM screen) and S6K peptide dose res (RSK1 [4]): all three compounds inhibited the kinase activity of both isoforms in the low micromolar range | pIC50 (RSK2 [3]; [5]): 5.77

O=c1cc(-c2ccc(O)c(O)c2)oc2cc(O)cc(O)c12 [Luteolin]
pIC50 (RSK1 [2]): 5.65 | in vitro RSK1 kinase assay, YB-1 peptide (10 μM screen) and S6K peptide dose res (RSK1 [4]): all three compounds inhibited the kinase activity of both isoforms in the low micromolar range | pIC50 (RSK2 [3]; [5]): 5.35
